This note sets out measurements from US10246712B2, “Genetic or pharmacological reduction of PERK enhances cortical- and hippocampus-dependent cognitive function” (Carmel-Haifa University Economic Corp. Ltd, priority 2015, dated 2019).

For one assay, the system named is p-eIF2α. Briefly: Immunoblot of p-eIF2α levels in rat insular cortex (IC). The class given is in vivo. The following applies: 1 μl, 100 nM stereotactic injection to the IC, compared to vehicle; n=15; data not shown. Here is the method:
For virus infusions, rats were first anesthetized with Ketamine (120 mg/kg) and Xylazine (6 mg/kg) and placed into a stereotactic frame (Steolting Europe, Dublin—Ireland) (Using a 32-gauge stainless steel injector attached to a stereotactic infusion pump, rats received 1 μl of lentivirus encoding PERK shRNA or lentivirus harboring a scrambled sequence over 10 min into the insular cortex (anteroposterior, +1.2 mm relative to bregma; lateral, ±5.5 mm; ventral, −6.0 mm) according to the atlas of Paxinos, G. & Watson, C. (2006). The injector was lets in place for 5 min before and after infusion to minimize fluid retraction. The rats were allowed at least 7 days to recover from the surgery before any behavior experiments were conducted.
The rats were cannulated as described in Barki-Harrington et al. (2009). Briefly, the rats were anesthetized by administration of equithesin (0.3 ml/100 g), comprising 2.12% (w/v) MgSO4, 10% (v/v) ethanol, 39.1% (v/v) propyleneglycol, 0.98% (w/v) sodium pentobarbital, and 4.2% (w/v) chloral hydrate. […]
At the end of the behavioral procedure, the brains were removed, and snap-frozen in liquid nitrogen. […] Protein content was determined with the BCA Protein Assay Kit (GE Healthcare). […]
In general terms: Immunoblotting shows a protein as a band on a membrane.

In the next assay the target is T1, PERK (Mus musculus, UniProt Q9Z2B5).
T1 construct: from tissue; host or cells: CA1 region of the hippocampus of C57BL/6 mice, in vivo
T1 sequence (Q9Z2B5 29-1114): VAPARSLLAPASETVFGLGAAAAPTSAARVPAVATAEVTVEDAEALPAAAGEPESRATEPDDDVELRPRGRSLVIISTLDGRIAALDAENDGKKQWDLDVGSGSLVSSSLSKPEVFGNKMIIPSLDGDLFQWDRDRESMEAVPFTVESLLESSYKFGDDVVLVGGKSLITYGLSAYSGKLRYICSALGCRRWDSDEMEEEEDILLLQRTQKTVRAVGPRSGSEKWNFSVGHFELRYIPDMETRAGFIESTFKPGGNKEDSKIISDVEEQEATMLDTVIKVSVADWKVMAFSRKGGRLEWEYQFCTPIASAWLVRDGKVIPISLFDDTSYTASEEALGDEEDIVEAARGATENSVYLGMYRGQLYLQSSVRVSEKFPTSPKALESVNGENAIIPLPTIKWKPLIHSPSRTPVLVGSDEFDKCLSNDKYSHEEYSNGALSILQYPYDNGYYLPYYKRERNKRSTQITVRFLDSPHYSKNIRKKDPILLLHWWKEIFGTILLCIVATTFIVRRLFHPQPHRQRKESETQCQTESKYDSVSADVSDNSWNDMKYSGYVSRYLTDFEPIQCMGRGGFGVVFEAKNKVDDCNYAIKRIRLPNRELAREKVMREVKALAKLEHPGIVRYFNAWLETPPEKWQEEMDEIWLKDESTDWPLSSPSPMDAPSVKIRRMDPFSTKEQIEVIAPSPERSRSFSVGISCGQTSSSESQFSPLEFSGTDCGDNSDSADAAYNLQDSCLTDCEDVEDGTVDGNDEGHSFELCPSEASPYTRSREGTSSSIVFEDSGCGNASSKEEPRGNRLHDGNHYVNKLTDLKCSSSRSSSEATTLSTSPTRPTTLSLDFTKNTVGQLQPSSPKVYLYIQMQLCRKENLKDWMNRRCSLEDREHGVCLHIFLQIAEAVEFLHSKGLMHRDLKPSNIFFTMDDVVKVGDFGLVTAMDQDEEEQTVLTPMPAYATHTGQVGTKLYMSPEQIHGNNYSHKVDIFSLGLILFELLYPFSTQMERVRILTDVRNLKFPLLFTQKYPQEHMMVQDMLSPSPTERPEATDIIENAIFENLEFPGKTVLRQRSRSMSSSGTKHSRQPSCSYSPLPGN
The class given is in vivo.

[1] abbreviates: 100 nM bilateral infusion to CA1 50 min prior to acquisition, 48 h after conditioning, vs vehicle.

From the text for PERK: Animals were anesthetized under 2% isoflurane using an isoflurane table top unit (HME109, Highland Medical Equipment). Under aseptic conditions, a rodent stereotaxic apparatus (Kopf Stereotaxic Alignment System Model 1900) with continuous 1% isoflurane anesthesia was used. For CA1 infusion cannula was implanted bilaterally into the CA1 region (from the bregma: −1.94 mm AP, ±1.0 mm ML, −1.0 mm DV). The implanted cannula was cemented on the skull. Each cannula was fitted with a 28 gauge dummy cannula that extended 0.1 mm beyond the tip of the guide cannula to prevent blockage of the guide cannula. After cannulation, mice were allowed to recover for 7 days before infusion of PERK inhibitor or vehicle and behavior. On conditioning day, randomly assigned mice were infused with 100 nM PERK inhibitor GSK2606414 (Axten et al., 2012) dissolved in dimethyl sulfoxide (DMSO) and further diluted in saline to a final DMSO concentration of 0.5%, via a 28-gauge infusion cannula connected by polyethylene (PE 20) tubing to a 10 μL Hamilton microsyringe (Hamilton Company). The infusion cannula protruded 0.25 mm beyond the guide cannula. For CA1 administration, infusion volume of 1 μl of 100 nM GSK2606414 or vehicle was delivered using a Harvard PHD2000 syringe pump (Harvard Apparatus) over the course of 1 min (at a rate of 1 μL/min). After infusion, the injection cannula was kept in the guide cannula for an additional minute to minimize dragging of infused solutes along the injection tract. Locations of cannula were verified in 30 μm coronal sections.
Model chambers measuring 25×25×25 cm internally (Panlab, Harvard Apparatus) were located inside a larger, insulated plastic cabinet that excluded external light and noise. For the trace fear conditioning protocol, mice were placed in a chamber (with light [20 W bulb] and a 16 bar metal grid floor) for 120 s, after which the mice received a 2.9 kHz tone, applied for 20 s at 80 dB (conditioned stimulus) and a 0.5 mA footshock applied for 2 s (unconditioned stimulus) 20 s following the end of the conditioned stimulus. This protocol was repeated 5 times, where each tone-shock presentation was separated by a 2-minute interval. After administration of the last shock, animals remained in the chamber for 2 minutes before they were taken back to the home cage. The chambers were cleaned with 10% ethanol between successive sets of mice. Animals from control and treatment groups were randomized between the 4 different chambers.

With `Cn1cc(-c2ccc3c(c2)CCN3C(=O)Cc2cccc(C(F)(F)F)c2)c2c(N)ncnc21` [GSK2606414, 7-methyl-5-(1-{[3-(trifluoromethyl)phenyl]acetyl}-2,3-dihydro-1H-indol-5-yl)-7H-pyrrolo[2,3-d]pyrimidin-4-amine], in the assay on p-eIF2α, the “reduction in p-eIF2α levels” value was 40%. On PERK (setting [1]), the “freezing during tone presentation (tone memory)” value was “enhanced freezing” and the “freezing in the trace interval following the tone (trace memory)” value was “enhanced freezing”. In addition, the “context memory (freezing)” value on PERK (100 nM bilateral infusion to CA1, 24 h after conditioning, vs vehicle) is reported as “not altered”. For the same molecule, on PERK (100 nM infusion to CA1 at the time of conditioning), the “extinction (cue and trace)” value was “no effect”.
